Source: publication PMC3412176 (Journal of biological inorganic chemistry : JBIC : a …, 2012)

Biological target: T1, S. oneidensis cytochrome c nitrite reductase (ccNiR, NrfA) (Shewanella oneidensis, UniProt Q8EAC7)
T1 sequence (Q8EAC7 28-467): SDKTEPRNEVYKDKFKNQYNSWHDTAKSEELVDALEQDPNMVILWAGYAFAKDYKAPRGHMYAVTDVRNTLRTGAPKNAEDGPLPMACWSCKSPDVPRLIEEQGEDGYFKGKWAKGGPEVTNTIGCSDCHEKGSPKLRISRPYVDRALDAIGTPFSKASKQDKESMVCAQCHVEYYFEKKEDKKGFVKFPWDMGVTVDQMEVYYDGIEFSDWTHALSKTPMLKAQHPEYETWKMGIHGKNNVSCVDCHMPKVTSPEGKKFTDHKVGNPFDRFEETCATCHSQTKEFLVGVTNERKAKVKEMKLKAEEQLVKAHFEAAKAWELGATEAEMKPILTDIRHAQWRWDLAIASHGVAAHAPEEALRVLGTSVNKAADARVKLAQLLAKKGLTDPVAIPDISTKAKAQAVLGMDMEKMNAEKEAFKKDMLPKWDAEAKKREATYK
Type: biochemical

O=S(O)O [sulfite]
Ki: ~600 µM
